Where “and” joins values, the source holds several entries; their conditions need not be identical. Equal values may be shown once.
molecular target: T1, human GVIA iPLA2 (Homo sapiens, UniProt O60733); assay: mixed micelle-based modified Dole assay, GVIA iPLA2 inhibition; format: biochemical; details: mole fraction of inhibitor in total substrate interface giving 50% inhibition
T1 sequence (O60733 1-806): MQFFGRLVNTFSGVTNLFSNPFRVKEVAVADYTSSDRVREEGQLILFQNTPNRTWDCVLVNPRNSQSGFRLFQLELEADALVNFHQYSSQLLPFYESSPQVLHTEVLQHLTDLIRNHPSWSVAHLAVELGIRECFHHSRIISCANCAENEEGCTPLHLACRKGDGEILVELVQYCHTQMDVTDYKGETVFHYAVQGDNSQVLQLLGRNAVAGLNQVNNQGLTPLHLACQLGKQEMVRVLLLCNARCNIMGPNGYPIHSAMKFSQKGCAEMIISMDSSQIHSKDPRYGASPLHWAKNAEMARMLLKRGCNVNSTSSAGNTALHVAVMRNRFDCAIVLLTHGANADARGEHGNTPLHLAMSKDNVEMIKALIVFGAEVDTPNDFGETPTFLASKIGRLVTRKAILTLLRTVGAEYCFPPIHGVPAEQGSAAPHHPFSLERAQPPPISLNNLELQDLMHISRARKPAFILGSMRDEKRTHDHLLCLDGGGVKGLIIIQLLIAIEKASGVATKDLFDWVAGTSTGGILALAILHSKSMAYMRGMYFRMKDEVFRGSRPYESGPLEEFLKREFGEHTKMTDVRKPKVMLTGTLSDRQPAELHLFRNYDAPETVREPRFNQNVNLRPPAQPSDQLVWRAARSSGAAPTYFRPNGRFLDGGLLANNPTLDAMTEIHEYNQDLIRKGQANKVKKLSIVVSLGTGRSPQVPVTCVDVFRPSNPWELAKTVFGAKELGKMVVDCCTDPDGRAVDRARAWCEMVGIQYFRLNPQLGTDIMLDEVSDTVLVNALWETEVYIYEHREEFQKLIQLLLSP

| Compound | GVIA iPLA2 XI(50) |
| --- | --- |
| O=C(CCCCCc1ccccc1)C(F)(F)C(F)(F)F [10b, 1,1,1,2,2-Pentafluoro-8-phenyl-octan-3-one] | 0.0065 mole fraction |
| CCCCCCCCCCCCCCCC(=O)C(F)(F)F [compound 6, palmitoyl trifluoromethyl ketone, reference compound] | 0.0195 mole fraction |
| O=C(CCCCc1ccccc1)C(F)(F)C(F)(F)F [10a, 1,1,1,2,2-Pentafluoro-7-phenyl-heptan-3-one] | 0.0073 mole fraction and 0.0073 ± 0.0007 mole fraction |
| O=C(CCCCCCc1ccccc1)C(F)(F)F [12b, 1,1,1-Trifluoro-8-phenyloctan-2-one] | 0.0018 mole fraction |
| O=C(CCCCCCc1ccccc1)C(F)(F)C(F)(F)F [10c, 1,1,1,2,2-Pentafluoro-9-phenyl-nonan-3-one] | 0.0065 mole fraction |
| CCCCCCOc1ccc(CCC(=O)C(F)(F)C(F)(F)F)cc1 [compound 21, 1,1,1,2,2-Pentafluoro-5-(4-hexyloxy-phenyl)-pentan-3-one] | 0.0075 mole fraction |
| O=C(CCCCCc1ccccc1)C(F)(F)F [12a, 1,1,1-Trifluoro-7-phenylheptan-2-one] | 0.0025 mole fraction |
| CCCCCCCCCCCCCCC(F)C(=O)C(F)(F)F (stereo not shown) [compound 26, 1,1,1,3-Tetrafluoro-heptadecan-2-one] | 0.0011 mole fraction |
| CCCCCCOc1ccc(CCC(=O)C(F)(F)F)cc1 [19a, 1,1,1-Trifluoro-4-(4-hexyloxy-phenyl)-butan-2-one] | 0.0328 ±0.0035 mole fraction |

same assay, conditions: ratio of XI(50) values, 26 vs 6

| Compound | potency as inhibitor of GVIA iPLA2 relative to trifluoro derivative 6 |
| --- | --- |
| CCCCCCCCCCCCCCC(F)C(=O)C(F)(F)F (stereo not shown) [compound 26, 1,1,1,3-Tetrafluoro-heptadecan-2-one] | approximately twenty-fold |

From article PMC2649009 (Journal of medicinal chemistry, 2008)
